Measured values published in ChEMBL document CHEMBL4354827, “Discovery of Novel, Potent, Brain-Permeable, and Orally Efficacious Positive Allosteric Modulator of α7 Nicotinic Acetylcholine Receptor [4-(5-(4-Chlorophenyl)-4-methyl-2-propionylthiophen-3-yl)benzenesulfonamide]: Structure-Activity Relationship and Preclinical Characterization” (J Med Chem, 2020).
Calls of active or inactive are those of the source. The rule behind the calls is not given here.

Columns and labels:
[1] = Tmax in Wistar rat plasma at 10 mg/kg, po after 1 to 144 hrs by LC-MS/MS analysis; format: ADME, organism-based
[2] = Protein binding in rat plasma at 5 uM incubated for 16 hrs under shaking condition by LC/MS/MS based rapid equilibrium dialysis method; format: ADME, cell-free; conditions: read-out: PPB (converted)
[3] = Protein binding in dog plasma at 5 uM incubated for 16 hrs under shaking condition by LC/MS/MS based rapid equilibrium dialysis method; format: ADME, cell-free, Canis lupus familiaris; conditions: read-out: PPB (converted)
Rattus norvegicus [4] = experiment: Memory enhancement effect in time-delay induced Wistar rat model of amnesia assessed as exploration time for object1 at 3 mg/kg, po administered as single dose after acquisition trial by novel object recognition test (reference value: 19.09 sec); format: functional
Rattus norvegicus [5] = experiment: Memory enhancement effect in time-delay induced Wistar rat model of amnesia assessed as exploration time for object1 in acquisition trial at 0.05 mg/kg, po for 7 days and measured on day 8 by novel object recognition test (reference value: 13.73 sec); format: functional
Rattus norvegicus [6] = experiment: Memory enhancement effect in scopolamine-induced Wistar rat model of amnesia assessed as exploration time for familiar object in retention trial at 0.15 mg/kg, po administered as single dose and measured on day 9 by novel object recognition test (reference value: 8.59 sec); format: functional
Rattus norvegicus [7] = experiment: Memory enhancement effect in time-delay induced Wistar rat model of amnesia assessed as increase in novel object discrimination at 1 mg/kg, po administered as single dose after acquisition trial by novel object recognition test (reference value: 0.08); format: functional
Rattus norvegicus [8] = experiment: Improvement in social recognition scopolamine-induced Sprague-Dawley rat model of amnesia assessed as increase in reduction in social investigation time at 3 mg/kg, po administered as single dose prior to 1 hr training and measured after 30 mins (reference value: 9.81%); format: functional; parameters: scale not given: the % may be the effect or the level left
[9] = Drug concentration in Wistar rat brain at 10 mg/kg, po after 1 hr by LC-MS/MS analysis; format: ADME, organism-based; conditions: read-out: Drug uptake
Rattus norvegicus [10] = experiment: Improvement in social recognition scopolamine-induced Sprague-Dawley rat model of amnesia assessed as increase in reduction in social investigation time at 0.05 mg/kg, po for 7 days measured after 24 hrs (Rvb =6.59%); format: functional; parameters: scale not given: the % may be the effect or the level left
Rattus norvegicus [11] = experiment: Memory enhancement effect in scopolamine-induced Wistar rat model of amnesia assessed as exploration time for object2 in acquisition trial at 0.5 mg/kg, po administered as single dose and measured on day 8 by novel object recognition test (reference value: 15.63 sec); format: functional
Rattus norvegicus [12] = experiment: Memory enhancement effect in time-delay induced Wistar rat model of amnesia assessed as exploration time for familiar object in retention trial at 0.05 mg/kg, po for 7 days and measured on day 8 by novel object recognition test (reference value: 10.20 sec); format: functional
[13] = Drug concentration in Wistar rat plasma at 10 mg/kg, po after 4 hrs by LC-MS/MS analysis; format: ADME, organism-based
[14] = AUClast in Beagle dog at 1 mg/kg, iv after 0.083 to 144 hrs by LC-MS/MS analysis; format: ADME, organism-based, Canis lupus familiaris; parameters: dose 1 mg/kg, time 0.083-144 hr, route intravenous; conditions: in vivo
Rattus norvegicus [15] = experiment: Memory enhancement effect in time-delay induced Wistar rat model of amnesia assessed as exploration time for novel object at 1 mg/kg, po administered as single dose after acquisition trial by novel object recognition test (reference value: 12.81 sec); format: functional
Rattus norvegicus [16] = experiment: Improvement in social recognition scopolamine-induced Sprague-Dawley rat model of amnesia assessed as reduction in recognition index at 0.50 mg/kg, po for 7 days measured after 24 hrs (reference value: 0.93); format: functional
Rattus norvegicus [17] = experiment: Memory enhancement effect in scopolamine-induced Wistar rat model of amnesia assessed as increase in novel object discrimination index at 0.5 mg/kg, po administered as single dose and measured on day 9 by novel object recognition test (reference value: 0.21); format: functional
[18] = target: Neuronal acetylcholine receptor subunit alpha-7 (Homo sapiens, UniProt P36544); experiment: Positive allosteric modulatory activity against alpha7 nAChR in human IMR-32 cells assessed as potentiation of PNU-282987-induced Ca2+ […] in presence of alpha-bungarotoxin/methyllycaconitine by FLIPR assay; format: cell-based
[19] = Oral bioavailability in Beagle dog at 10 mg/kg after 0.25 to 144 hrs by LC-MS/MS analysis; format: ADME, organism-based, Canis lupus familiaris; conditions: in vivo
Rattus norvegicus [20] = experiment: Memory enhancement effect in time-delay induced Wistar rat model of amnesia assessed as exploration time for novel object in retention trial at 0.15 mg/kg, po for 7 days and measured on day 8 by novel object recognition test (reference value: 15.37 sec); format: functional
[21] = Brain to plasma permeability coefficient, Kp in Wistar rat at 10 mg/kg, po after 4 hrs by LC-MS/MS analysis; format: ADME, organism-based
[22] = Drug level in Wistar rat plasma at 0.15 mg/kg, po; format: ADME, organism-based; conditions: in vivo
Rattus norvegicus [23] = experiment: Improvement in social recognition time delay-induced Sprague-Dawley rat model of amnesia assessed as increase in reduction in social investigation time at 1 mg/kg, po administered as single dose prior to 1 hr training and measured after 30 mins (reference value: 0.39%); format: functional; parameters: scale not given: the % may be the effect or the level left
[24] = Brain to plasma permeability coefficient, Kp in Wistar rat at 10 mg/kg, po after 48 hrs by LC-MS/MS analysis; format: ADME, organism-based
Rattus norvegicus [25] = experiment: Memory enhancement effect in time-delay induced Wistar rat model of amnesia assessed as increase in discrimination index at 0.05 mg/kg, po for 7 days and measured on day 8 by novel object recognition test (reference value: 0.12); format: functional
[26] = Drug concentration in Wistar rat plasma at 10 mg/kg, po after 1 hr by LC-MS/MS analysis; format: ADME, organism-based
[27] = Metabolic stability in dog liver microsomes assessed as compound remaining at 1 uM preincubated for 5 mins followed by NADPH addition and measured after 30 mins by LC-MS/MS analysis; format: ADME, Canis lupus familiaris, Microsome; conditions: read-out: Stability
[28] = Clearance in Beagle dog at 1 mg/kg, iv after 0.083 to 144 hrs by LC-MS/MS analysis; format: ADME, organism-based, Canis lupus familiaris; conditions: in vivo
Rattus norvegicus [29] = experiment: Memory enhancement effect in time-delay induced Wistar rat model of amnesia assessed as exploration time for familiar object in retention trial at 0.15 mg/kg, po for 7 days and measured on day 8 by novel object recognition test (reference value: 10.20 sec); format: functional
[30] = Elimination half life in human at 7.5 to 100 mg; format: ADME; conditions: read-out: beta t1/2
[31] = Unbound brain-to-plasma concentration ratio in Wistar rat at 10 mg/kg, po after 4 hrs by LC-MS/MS analysis; format: ADME, organism-based; conditions: read-out: K(p,uu,brain)
Cytochrome P450 3A4 = Cytochrome P450 3A4 (Homo sapiens, UniProt P08684); experiment: Inhibition of CYP3A4 (unknown origin) up to 10 uM; format: ADME
[32] = Cmax in BALB/c mouse at 1 mg/kg, iv after 0.083 to 144 hrs by LC-MS/MS analysis; format: ADME, organism-based; parameters: dose 1 mg/kg, route intravenous; conditions: in vivo
Rattus norvegicus [33] = experiment: Memory enhancement effect in time-delay induced Wistar rat model of amnesia assessed as increase in exploration time for novel object in retention trial at 3 mg/kg, po administered as single dose and measured on day 9 by novel object recognition test (reference value: 12.06 sec); format: functional
[34] = Half life in Beagle dog at 10 mg/kg, po after 0.25 to 144 hrs by LC-MS/MS analysis; format: ADME, organism-based, Canis lupus familiaris; conditions: in vivo

Sequence of Cytochrome P450 3A4 (P08684 whole entry): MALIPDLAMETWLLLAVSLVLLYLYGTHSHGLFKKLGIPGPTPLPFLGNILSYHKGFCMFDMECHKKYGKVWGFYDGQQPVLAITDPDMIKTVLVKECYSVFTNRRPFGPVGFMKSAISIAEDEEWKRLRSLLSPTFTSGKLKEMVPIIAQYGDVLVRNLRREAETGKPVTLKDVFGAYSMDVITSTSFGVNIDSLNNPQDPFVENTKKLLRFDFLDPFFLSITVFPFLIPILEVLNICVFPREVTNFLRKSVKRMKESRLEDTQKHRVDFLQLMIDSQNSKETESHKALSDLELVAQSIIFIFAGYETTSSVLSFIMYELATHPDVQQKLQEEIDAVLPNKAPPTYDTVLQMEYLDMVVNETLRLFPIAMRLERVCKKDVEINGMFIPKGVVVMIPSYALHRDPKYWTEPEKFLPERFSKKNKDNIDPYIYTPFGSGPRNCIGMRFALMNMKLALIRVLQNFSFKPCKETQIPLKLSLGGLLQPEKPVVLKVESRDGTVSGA
Sequence of Neuronal acetylcholine receptor subunit alpha-7 (P36544 whole entry): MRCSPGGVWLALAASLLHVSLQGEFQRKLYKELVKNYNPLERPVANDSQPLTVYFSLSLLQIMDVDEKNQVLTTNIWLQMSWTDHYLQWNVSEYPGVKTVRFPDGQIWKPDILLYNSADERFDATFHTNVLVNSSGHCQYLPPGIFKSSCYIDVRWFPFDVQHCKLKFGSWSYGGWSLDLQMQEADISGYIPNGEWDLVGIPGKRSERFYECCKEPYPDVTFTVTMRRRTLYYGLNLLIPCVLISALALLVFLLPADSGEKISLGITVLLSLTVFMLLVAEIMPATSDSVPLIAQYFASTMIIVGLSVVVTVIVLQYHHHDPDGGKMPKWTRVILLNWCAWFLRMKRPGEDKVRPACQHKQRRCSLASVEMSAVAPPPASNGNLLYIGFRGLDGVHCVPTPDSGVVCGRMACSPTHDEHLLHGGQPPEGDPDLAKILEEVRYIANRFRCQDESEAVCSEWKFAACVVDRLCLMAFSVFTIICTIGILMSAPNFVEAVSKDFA

**Q.** What does the source list for CCC(=O)c1sc(-c2ccc(Cl)cc2)c(C)c1-c1ccc(S(N)(=O)=O)cc1?
**A.** Tmax [1]: 1 h; fraction unbound at 16 h, 5 µM [2]: 0.0058; fraction unbound at 16 h, 5 µM [3]: 0.0031; Time (Rattus norvegicus [4]): 17.81 s; Time (Rattus norvegicus [5]): 15.2 s; Time (Rattus norvegicus [6]): 4.86 s; Activity_index (Rattus norvegicus [7]): 0.38; Activity (Rattus norvegicus [8]): 55.09%; concentration at 1 h [9]: 4030 nM; Activity (Rattus norvegicus [10]): 44.4%; Time (Rattus norvegicus [11]): 16.55 s; Time (Rattus norvegicus [12]): 7.64 s; concentration at 4 h [13]: 850 nM; AUC(0-t) [14]: 47 µM·h; Time (Rattus norvegicus [15]): 24.46 s; Activity_index (Rattus norvegicus [16]): 0.75; Activity_index (Rattus norvegicus [17]): 0.45; Activity [18]: inactive; bioavailability [19]: 60%; Time (Rattus norvegicus [20]): 7.15 s; Kp at 4 h [21]: 10.7; concentration [22]: 70 nM; Activity (Rattus norvegicus [23]): 31.73%; Kp at 48 h [24]: 9.52; Activity_index (Rattus norvegicus [25]): 0.27; concentration at 1 h [26]: 870 nM; remaining at 0.5 h, 1 µM [27]: 93%; clearance [28]: 0.7 mL/min/kg; Time (Rattus norvegicus [29]): 3.79 s; half-life [30]: 15.5 to 77 h; Kp uu at 4 h [31]: 1.29; inhibition (INH) (Cytochrome P450 3A4): Not Active; Cmax [32]: 900 nM; Time (Rattus norvegicus [33]): 26.25 s; half-life [34]: 54 h
